The target in one data set is Trypanothione reductase (Trypanosoma cruzi, UniProt P28593). The data set is described as follows: Inhibition of trypanothione reductase from Trypanosoma cruzi, in the presence 57 uM of trypanothione T(SH)2.
The nature of data set [1]: (§1) Michaelis constant was determined.
Data set [2] is described as follows: Catalytic rate constant was determined. The format is ADME.
Data set [3] is described as follows: as §1. The format is ADME.

This is an account of results in ChEMBL document CHEMBL1131361, “Structure-activity relationships in 2-aminodiphenylsulfides against trypanothione reductase from Trypanosoma cruzi” (Bioorg Med Chem Lett, 1998).

Chain of Trypanothione reductase (P28593 whole entry): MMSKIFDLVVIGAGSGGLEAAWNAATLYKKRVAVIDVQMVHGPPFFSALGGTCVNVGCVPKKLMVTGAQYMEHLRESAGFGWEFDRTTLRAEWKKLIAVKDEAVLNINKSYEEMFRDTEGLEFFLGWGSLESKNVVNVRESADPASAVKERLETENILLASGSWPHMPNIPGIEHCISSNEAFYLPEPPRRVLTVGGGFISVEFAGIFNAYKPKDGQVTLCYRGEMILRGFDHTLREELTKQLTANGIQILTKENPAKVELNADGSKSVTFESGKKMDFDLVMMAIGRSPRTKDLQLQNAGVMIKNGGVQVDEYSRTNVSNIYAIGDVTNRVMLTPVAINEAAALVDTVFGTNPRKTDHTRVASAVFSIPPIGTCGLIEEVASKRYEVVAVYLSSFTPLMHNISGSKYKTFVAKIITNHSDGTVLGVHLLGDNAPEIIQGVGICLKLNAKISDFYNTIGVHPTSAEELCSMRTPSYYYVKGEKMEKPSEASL

One may read the IC50 as the point on the concentration scale where inhibition reaches its midpoint. Low readings indicate greater potency, high ones weaker potency. In turn, `CN1CCN(CCC(=O)Nc2cc(Br)ccc2Sc2cccc(NC(=O)CCCC(=O)NCc3ccc4ccccc4c3)c2)CC1` yielded an IC50 against Trypanothione reductase of 25 µM.
The same measure, in the same setting: the value for `CN1CCN(CCC(=O)Nc2cc(Br)ccc2Sc2cccc(NC(=O)CCCC(=O)NCc3ccc4c(c3)OCO4)c2)CC1` was 33 µM.
On the same count and under the same terms, the value for `CN1CCN(CCC(=O)Nc2cc(Br)ccc2Sc2cccc(NC(=O)CCCC(=O)NCc3ccccn3)c2)CC1` was above 60 µM; that for `CN1CCN(CCC(=O)Nc2cc(Br)ccc2Sc2cccc(NC(=O)CCCC(=O)NCCc3ccccc3)c2)CC1` was 20 µM; that for `CN1CCN(CCC(=O)Nc2cc(Br)ccc2Sc2cccc(NC(=O)CCCC(=O)NCC3CCCCC3)c2)CC1` was 47 µM.
In turn, `CN1CCN(CCC(=O)Nc2cc(Br)ccc2Sc2cccc(NC(=O)CCCC(=O)NCc3ccccc3)c2)CC1` had an IC50 on Trypanothione reductase of 35 µM.
Still for that read-out and setting: under `CN1CCN(CCC(=O)Nc2cc(Br)ccc2Sc2cccc(NC(=O)CCCC(=O)NCC34C[C@H]5C[C@@H](C3)C[C@@H](C4)C5)c2)CC1` stands above 60 µM.
On the same count and under the same terms, under `CN1CCN(CCC(=O)Nc2cc(Br)ccc2Sc2cccc(NC(=O)CCCC(=O)NCC3CCCO3)c2)CC1` (centres undefined) stands above 60 µM.
For orientation: Km means the concentration of substrate that gives half-maximal velocity. Regarding `CC1=CC(=O)c2ccccc2C1=O` [MENADIONE], the Km in data set [1] was determined as 882 µM. Moreover, the “k cat/Km” value in data set [2] turned out to be 50000 M⁻¹ s⁻¹.
Regarding `CN1CCN(CCC(=O)Nc2cc(Br)ccc2Sc2cccc(NC(=O)CCCCCC(=O)Nc3cccc(Sc4ccccc4N)c3)c2)CC1`, the IC50 at Trypanothione reductase worked out at 16 µM.
Same read-out and setting: the value for `CN1CCN(CCC(=O)Nc2ccccc2Sc2cccc(NC(=O)CCCCCC(=O)Nc3cccc(Sc4ccccc4N)c3)c2)CC1` was 1.8 µM.
On to `CN1CCN(CCC(=O)Nc2cc(Br)ccc2Sc2cccc(NC(=O)CCCCCC(=O)OCC3=C(Br)C(=O)c4ccccc4C3=O)c2)CC1`, for which the “k cat/Km” value in data set [2] came out at 8400 M⁻¹ s⁻¹. Besides, the IC50 on Trypanothione reductase was 41 µM. Moreover, the Km in data set [3] was determined as 160 µM.
For `CCN(CC)C(=O)CCCC(=O)Nc1cccc(Sc2ccc(Br)cc2NC(=O)CCN2CCN(C)CC2)c1`, the 50% inhibitory concentration (IC50) on Trypanothione reductase was above 60 µM.
On the same count and under the same terms, the value for `CN(C)Cc1ccc(Nc2ccc(NC(=O)CCCCCC(=O)Nc3cccc(Sc4ccc(Br)cc4NC(=O)CCN4CCN(C)CC4)c3)c3c2C(=O)c2ccccc2C3=O)cc1` was 3.3 µM; that for `CN1CCN(CCC(=O)Nc2cc(Br)ccc2Sc2cccc(NC(=O)CCCCCC(=O)Nc3ccc(N)c4c3C(=O)c3ccccc3C4=O)c2)CC1` was above 60 µM; that for `CN1CCN(CCC(=O)Nc2cc(Br)ccc2Sc2cccc(NC(=O)CCCC(=O)Nc3cccc(Sc4ccc(Br)cc4NC(=O)CCN4CCN(C)CC4)c3)c2)CC1` was 0.55 µM.
The same measure, in the same setting: under `CCCCCCCCCCCCCCCCNC(=O)CCCC(=O)Nc1cccc(Sc2ccc(Br)cc2NC(=O)CCN2CCN(C)CC2)c1` stands above 60 µM.
At Trypanothione reductase, `CN1CCN(CCC(=O)Nc2cc(Br)ccc2Sc2cccc(NC(=O)CCCC(=O)NC(c3ccccc3)c3ccccc3)c2)CC1` had an IC50 of 28 µM.
Same read-out and setting: under `CN1CCN(CCC(=O)Nc2cc(Br)ccc2Sc2cccc(NC(=O)CCCCCC(=O)Nc3cccc(Sc4ccccc4[N+](=O)[O-])c3)c2)CC1` stands above 60 µM.
On the same count and under the same terms, under `CCCCCCCNC(=O)CCCC(=O)Nc1cccc(Sc2ccc(Br)cc2NC(=O)CCN2CCN(C)CC2)c1` stands 23 µM; under `CN1CCN(CCC(=O)Nc2cc(Br)ccc2Sc2cccc(NC(=O)CCCCCC(=O)Nc3ccccc3)c2)CC1`, 14 µM.
